From ChEMBL document CHEMBL1275409, “Antimicrobial-resistant pathogens in intensive care units in Canada: results of the Canadian National Intensive Care Unit (CAN-ICU) study, 2005-2006” (2008)

What was measured:
Assay type in all cases: functional
[1] = system: Staphylococcus epidermidis; test: Antimicrobial activity against methicillin-susceptible Staphylococcus epidermidis isolated from ICU patient wound assessed as resistant isolates by broth microdilution method
[2] = system: Staphylococcus epidermidis; test: Antimicrobial activity against methicillin-susceptible Staphylococcus epidermidis isolated from ICU patient blood assessed as resistant isolates by broth microdilution method
Enterococcus sp. [3] = test: Antimicrobial activity against vancomycin-resistant Enterococcus sp. isolated from ICU patient respiratory tract assessed as resistant isolates by broth microdilution method
Escherichia coli [4] = test: Antimicrobial activity against CTX-M ESBL producing Escherichia coli isolated from ICU patient respiratory tract assessed as resistant isolates by broth microdilution method
Staphylococcus aureus [5] = test: Antimicrobial activity against methicillin-resistant Staphylococcus aureus isolated from ICU patient respiratory tract assessed as resistant isolates by broth microdilution method
Staphylococcus aureus [6] = test: Antimicrobial activity against methicillin-resistant Staphylococcus aureus isolated from ICU patient blood assessed as resistant isolates by broth microdilution method
[7] = system: Staphylococcus epidermidis; test: Antimicrobial activity against methicillin-susceptible Staphylococcus epidermidis isolated from ICU patient urine assessed as resistant isolates by broth microdilution method
Haemophilus influenzae [8] = test: Antimicrobial activity against Haemophilus influenzae assessed as resistant isolates by broth microdilution method
[9] = system: Staphylococcus epidermidis; test: Antimicrobial activity against methicillin-resistant Staphylococcus epidermidis isolated from ICU patient wound assessed as resistant isolates by broth microdilution method
Pseudomonas aeruginosa [10] = test: Antimicrobial activity against carbapenem-resistant Pseudomonas aeruginosa isolated from ICU patient blood assessed as resistant isolates by broth microdilution method
Enterobacter cloacae [11] = test: Antimicrobial activity against carbapenem-resistant Enterobacter cloacae assessed as resistant isolates by broth microdilution method
Staphylococcus aureus [12] = test: Antimicrobial activity against methicillin-susceptible Staphylococcus aureus assessed as resistant isolates by broth microdilution method
Escherichia coli [13] = test: Antimicrobial activity against CTX-M ESBL producing Escherichia coli isolated from ICU patient urine assessed as resistant isolates by broth microdilution method
Enterococcus sp. [14] = test: Antimicrobial activity against vancomycin-resistant Enterococcus sp. isolated from ICU patient blood assessed as resistant isolates by broth microdilution method
Streptococcus pneumoniae [15] = test: Antimicrobial activity against penicillin-resistant Streptococcus pneumoniae isolated from ICU patient blood assessed as resistant isolates by broth microdilution method
[16] = system: Staphylococcus epidermidis; test: Antimicrobial activity against methicillin-resistant Staphylococcus epidermidis isolated from ICU patient blood assessed as resistant isolates by broth microdilution method
Enterococcus sp. [17] = test: Antimicrobial activity against vancomycin-resistant Enterococcus sp. assessed as resistant isolates by broth microdilution method
Streptococcus pneumoniae [18] = test: Antimicrobial activity against penicillin-resistant Streptococcus pneumoniae isolated from ICU patient respiratory tract assessed as resistant isolates by broth microdilution method
Staphylococcus aureus [19] = test: Antimicrobial activity against methicillin-susceptible Staphylococcus aureus isolated from ICU patient respiratory tract assessed as resistant isolates by broth microdilution method
Streptococcus pneumoniae [20] = test: Antimicrobial activity against penicillin-resistant Streptococcus pneumoniae isolated from ICU patient wound assessed as resistant isolates by broth microdilution method
Enterobacter cloacae [21] = test: Antimicrobial activity against carbapenem-resistant Enterobacter cloacae isolated from ICU patient respiratory tract assessed as resistant isolates by broth microdilution method
Escherichia coli [22] = test: Antimicrobial activity against CTX-M ESBL producing Escherichia coli isolated from ICU patient blood assessed as resistant isolates by broth microdilution method
Enterobacter cloacae [23] = test: Antimicrobial activity against carbapenem-resistant Enterobacter cloacae isolated from ICU patient urine assessed as resistant isolates by broth microdilution method
Staphylococcus aureus [24] = test: Antimicrobial activity against methicillin-susceptible Staphylococcus aureus isolated from ICU patient urine assessed as resistant isolates by broth microdilution method
Klebsiella pneumoniae [25] = test: Antimicrobial activity against ESBL producing Klebsiella pneumoniae isolated from ICU patient urine assessed as resistant isolates by broth microdilution method
Haemophilus influenzae [26] = test: Antimicrobial activity against Haemophilus influenzae isolated from ICU patient wound assessed as resistant isolates by broth microdilution method
Klebsiella pneumoniae [27] = test: Antimicrobial activity against ESBL producing Klebsiella pneumoniae assessed as resistant isolates by broth microdilution method
Pseudomonas aeruginosa [28] = test: Antimicrobial activity against carbapenem-resistant Pseudomonas aeruginosa isolated from ICU patient wound assessed as resistant isolates by broth microdilution method
Klebsiella pneumoniae [29] = test: Antimicrobial activity against ESBL producing Klebsiella pneumoniae isolated from ICU patient respiratory tract assessed as resistant isolates by broth microdilution method
[30] = system: Staphylococcus epidermidis; test: Antimicrobial activity against methicillin-resistant Staphylococcus epidermidis isolated from ICU patient urine assessed as resistant isolates by broth microdilution method
Enterobacter cloacae [31] = test: Antimicrobial activity against carbapenem-resistant Enterobacter cloacae isolated from ICU patient blood assessed as resistant isolates by broth microdilution method
[32] = system: Staphylococcus epidermidis; test: Antimicrobial activity against methicillin-resistant Staphylococcus epidermidis assessed as resistant isolates by broth microdilution method
Pseudomonas aeruginosa [33] = test: Antimicrobial activity against carbapenem-resistant Pseudomonas aeruginosa isolated from ICU patient respiratory tract assessed as resistant isolates by broth microdilution method
Staphylococcus aureus [34] = test: Antimicrobial activity against methicillin-resistant Staphylococcus aureus isolated from ICU patient urine assessed as resistant isolates by broth microdilution method
Staphylococcus aureus [35] = test: Antimicrobial activity against methicillin-resistant Staphylococcus aureus isolated from ICU patient wound assessed as resistant isolates by broth microdilution method
Pseudomonas aeruginosa [36] = test: Antimicrobial activity against carbapenem-resistant Pseudomonas aeruginosa isolated from ICU patient urine assessed as resistant isolates by broth microdilution method
[37] = system: Staphylococcus epidermidis; test: Antimicrobial activity against methicillin-susceptible Staphylococcus epidermidis isolated from ICU patient respiratory tract assessed as resistant isolates by broth microdilution method
Staphylococcus aureus [38] = test: Antimicrobial activity against methicillin-resistant Staphylococcus aureus assessed as resistant isolates by broth microdilution method
Pseudomonas aeruginosa [39] = test: Antimicrobial activity against carbapenem-resistant Pseudomonas aeruginosa assessed as resistant isolates by broth microdilution method
Escherichia coli [40] = test: Antimicrobial activity against CTX-M ESBL producing Escherichia coli assessed as resistant isolates by broth microdilution method
Haemophilus influenzae [41] = test: Antimicrobial activity against Haemophilus influenzae isolated from ICU patient respiratory tract assessed as resistant isolates by broth microdilution method
Staphylococcus aureus [42] = test: Antimicrobial activity against methicillin-susceptible Staphylococcus aureus isolated from ICU patient blood assessed as resistant isolates by broth microdilution method
[43] = system: Staphylococcus epidermidis; test: Antimicrobial activity against methicillin-susceptible Staphylococcus epidermidis assessed as resistant isolates by broth microdilution method
Escherichia coli [44] = test: Antimicrobial activity against CTX-M ESBL producing Escherichia coli isolated from ICU patient wound assessed as resistant isolates by broth microdilution method
Streptococcus pneumoniae [45] = test: Antimicrobial activity against penicillin-resistant Streptococcus pneumoniae assessed as resistant isolates by broth microdilution method
Enterococcus sp. [46] = test: Antimicrobial activity against vancomycin-resistant Enterococcus sp. isolated from ICU patient wound assessed as resistant isolates by broth microdilution method
Enterobacter cloacae [47] = test: Antimicrobial activity against carbapenem-resistant Enterobacter cloacae isolated from ICU patient wound assessed as resistant isolates by broth microdilution method
Enterococcus sp. [48] = test: Antimicrobial activity against vancomycin-resistant Enterococcus sp. isolated from ICU patient urine assessed as resistant isolates by broth microdilution method
Haemophilus influenzae [49] = test: Antimicrobial activity against Haemophilus influenzae isolated from ICU patient blood assessed as resistant isolates by broth microdilution method
Klebsiella pneumoniae [50] = test: Antimicrobial activity against ESBL producing Klebsiella pneumoniae isolated from ICU patient blood assessed as resistant isolates by broth microdilution method
Staphylococcus aureus [51] = test: Antimicrobial activity against methicillin-susceptible Staphylococcus aureus isolated from ICU patient wound assessed as resistant isolates by broth microdilution method

SMILES: C[C@H]1COc2c(N3CCN(C)CC3)c(F)cc3c(=O)c(C(=O)O)cn1c23.C[C@H]1COc2c(N3CCN(C)CC3)c(F)cc3c(=O)c(C(=O)O)cn1c23.O [LEVOFLOXACIN]
- Activity [1]: 66.7%
- Activity [2]: 42.9%
- Activity (Enterococcus sp. [3]): 46.7%
- Activity (Escherichia coli [4]): 21.3%
- Activity (Staphylococcus aureus [5]): 91.5%
- Activity (Staphylococcus aureus [6]): 91.8%
- Activity [7]: 80%
- Activity (Haemophilus influenzae [8]): 0%
- Activity [9]: 100%
- Activity (Pseudomonas aeruginosa [10]): 3.9%
- Activity (Enterobacter cloacae [11]): 1.8%
- Activity (Staphylococcus aureus [12]): 7.3%
- Activity (Escherichia coli [13]): 19.8%
- Activity (Enterococcus sp. [14]): 56.8%
- Activity (Streptococcus pneumoniae [15]): 0%
- Activity [16]: 100%
- Activity (Enterococcus sp. [17]): 51%
- Activity (Streptococcus pneumoniae [18]): 2.1%
- Activity (Staphylococcus aureus [19]): 6.9%
- Activity (Streptococcus pneumoniae [20]): 0%
- Activity (Enterobacter cloacae [21]): 0%
- Activity (Escherichia coli [22]): 23.3%
- Activity (Enterobacter cloacae [23]): 6.3%
- Activity (Staphylococcus aureus [24]): 20%
- Activity (Klebsiella pneumoniae [25]): 40%
- Activity (Haemophilus influenzae [26]): 0%
- Activity (Klebsiella pneumoniae [27]): 25.5%
- Activity (Pseudomonas aeruginosa [28]): 11.5%
- Activity (Klebsiella pneumoniae [29]): 21.5%
- Activity [30]: 100%
- Activity (Enterobacter cloacae [31]): 4.2%
- Activity [32]: 100%
- Activity (Pseudomonas aeruginosa [33]): 3.3%
- Activity (Staphylococcus aureus [34]): 100%
- Activity (Staphylococcus aureus [35]): 92.6%
- Activity (Pseudomonas aeruginosa [36]): 0%
- Activity [37]: 100%
- Activity (Staphylococcus aureus [38]): 91.8%
- Activity (Pseudomonas aeruginosa [39]): 3.6%
- Activity (Escherichia coli [40]): 21.1%
- Activity (Haemophilus influenzae [41]): 0%
- Activity (Staphylococcus aureus [42]): 6.9%
- Activity [43]: 52.3%
- Activity (Escherichia coli [44]): 24.1%
- Activity (Streptococcus pneumoniae [45]): 1.7%
- Activity (Enterococcus sp. [46]): 45.8%
- Activity (Enterobacter cloacae [47]): 5.9%
- Activity (Enterococcus sp. [48]): 52%
- Activity (Haemophilus influenzae [49]): 0%
- Activity (Klebsiella pneumoniae [50]): 24.2%
- Activity (Staphylococcus aureus [51]): 7.1%
